Results published in patent publication US3957850A, “Phenylacetic acid derivatives” (priority 1971, dated 1976).
Where two headings read alike, the source gives them in different places.

Columns and labels:
[1] = Acute toxicity determination, oral LD50 by method of BEHRENS and KARBER; details: mouse, in vivo, female Swiss mice, 48 hours observation
Protocol: Acute toxicity tests were carried out with lots of 10 female mice of "Swiss" strain, weighing from 19 to 21 g.
The means lethal dose (LD50) by the oral route was determined by means of the method of BEHRENS and KARBER after keeping the animals under observation during 48 hours. In this table are also set forth the LD50 of acetylsalicylic acid and of indometacine used as reference materials.

[2] = system: carragheenin-induced edema of the paws; assay: Anti-inflammatory activity: test of the carragheenin-induced edema of the paws in rats; type: in vivo; details: Rattus norvegicus, 1 h, read-out: % inhibition of inflammation; for inhibition in vivo at 50 mg/kg: 50 mg/kg (about 1/36 of LD50); for inhibition in vivo at 67 mg/kg: 67 mg/kg (about 1/36 of LD50); for inhibition in vivo at 33 mg/kg: 33 mg/kg (about 1/36 of LD50)
Protocol: The anti-inflammatory activity was determined by means of the test of the carragheenin-induced edema of the pawsin rats.
Male rats weighing about 120 g are administered 0.1 ml of an 0.5% carragheenin suspension (plantar sub-aponeurotic injection) one hour after oral treatment with the various test compounds.
The volume of the rear paws is measured prior to injection of the inflammatory agent, and then 2, 3 and 4 hours after injection.
The difference between the volume of the paws of the treated animals and the volume of the paws of the reference animals evidences the anti-inflammatory action of the various test compounds.
The same test was carried out with indometacine.

[3] = system: peritoneal pain induced by injection of acetic acid; assay: Analgesic activity: inhibition test of the peritoneal pain induced by injection of acetic acid (writhing); type: in vivo, mice; details: Mus musculus, read-out: % analgesia
Protocol: The analgesic activity was determined by the inhibition test of the peritoneal pain induced by injection of acetic acid.
The materials having an analgesic action reduce or eliminate this syndrome.
Lots of 10 mice are given orally the various test compounds, 30 minutes prior to injection of the challenging material. The writhing movements are counted during 15 minutes and the analgesic effect is expressed as percent decrease of the number of stretching movements with respect to the reference animals.
The same test was carried out with acetylsalicylic acid.

[4] = male rats, oral, one hour before carragheenin
[5] = mice, oral, 30 minutes before acetic acid
[6] = male rats, oral, 81 mg/kg (about 1/36 of LD50), one hour before carragheenin

| SMILES | LD50 at 48 h [1] | inhibition in vivo at 67 mg/kg [2, 4] | other results |
| --- | --- | --- | --- |
| C=CCNc1ccc(C(C)C(=O)OC)cc1 (stereo not shown) [methyl 2-(p-allylaminophenyl)propionate, Methyl 2-(p-allylaminophenyl)-propionate] | 1600 mg/kg |  | inhibition in vivo at 50 mg/kg [2, 4]: 35%; inhibition in vivo at 25 mg/kg ([3]; mice, oral, 25 mg/kg, 30 minutes before acetic acid): 57% |
| C=C(C)CNc1ccc(C(C)C(=O)O)cc1 (stereo not shown) [2-(p-methallylaminophenyl)propionic acid, 2-(p-Methallylaminophenyl)propionic acid] | 2400 mg/kg | 51% | inhibition in vivo at 7 mg/kg ([3]; mice, oral, 7 mg/kg, 30 minutes before acetic acid): 58% |
| C=CCNc1ccc(C(C)C(=O)[O-])cc1.[Li+] (stereo not shown) [lithium salt] |  |  | inhibition in vivo at 81 mg/kg ([2]; po): 59%; inhibition in vivo at 81 mg/kg ([3]; po): 28% |
| CCNc1ccc(C(C)C(=O)O)cc1 (stereo not shown) [2-(p-ethylaminophenyl)propionic acid, 2-(p-Ethylaminophenyl)propionic acid] | 2400 mg/kg | 47% | inhibition in vivo at 27 mg/kg [3, 5]: 44% |
| C=C(C)CNc1ccc(CC(=O)O)cc1 [p-methallylaminophenylacetic acid, p-Methallylaminophenylacetic acid] | 1780 mg/kg |  | inhibition in vivo at 49 mg/kg ([2]; male rats, oral, 49 mg/kg (about 1/36 of LD50), one hour before carragheenin): 25%; inhibition in vivo at 49 mg/kg ([3]; mice, oral, 49 mg/kg, 30 minutes before acetic acid): 32% |
| CCCCNc1ccc(CC(=O)O)cc1 [p-n-butylaminophenylacetic acid, p-n-Butylaminophenylacetic acid] | 1200 mg/kg |  | inhibition in vivo at 33 mg/kg [2, 4]: 21%; inhibition in vivo at 33 mg/kg ([3]; mice, oral, 33 mg/kg, 30 minutes before acetic acid): 51% |
| COc1ccc2c(c1)c(CC(=O)O)c(C)n2C(=O)c1ccc(Cl)cc1 [indometacine, reference compound] | 50 mg/kg |  | inhibition in vivo at 5 mg/kg ([2]; po): 37% |
| CCCCNc1ccc(C(C)C(=O)O)cc1 (stereo not shown) [2-(p-n-butylaminophenyl)propionic acid, 2-(p-n-Butylaminophenyl)propionic acid] | 1200 mg/kg |  | inhibition in vivo at 33 mg/kg [2, 4]: 33%; inhibition in vivo at 13 mg/kg ([3]; mice, oral, 13 mg/kg, 30 minutes before acetic acid): 50% |
| CC(C)Nc1ccc(CC(=O)O)cc1 [p-isopropylaminophenylacetic acid, p-Isopropylaminophenylacetic acid] | 2400 mg/kg | 42% | inhibition in vivo at 13.5 mg/kg [3, 5]: 42% |
| O=C(O)Cc1ccc(NCc2ccccc2)cc1 [p-benzylaminophenylacetic acid, p-Benzylaminophenylacetic acid] | 2400 mg/kg | 26% | inhibition in vivo at 67 mg/kg [3, 5]: 33% |
| CC(C)Nc1ccc(C(C)C(=O)O)cc1 (stereo not shown) [2-(p-isopropylaminophenyl)propionic acid, 2-(p-Isopropylaminophenyl)-propionic acid] | 2400 mg/kg | 44% | inhibition in vivo at 27 mg/kg [3, 5]: 56% |
| C#CCNc1ccc(C(C)C(=O)O)cc1 (stereo not shown) [2-(p-propargylaminophenyl)propionic acid, 2-(p-Propargylaminophenyl)-propionic acid] | 2400 mg/kg | 47% | inhibition in vivo at 13.5 mg/kg [3, 5]: 55% |
| C=C(C)CNc1ccc(CC(=O)OCC)cc1 [ethyl p-methallylaminophenylacetate, Ethyl p-methallylaminophenylacetate] | 2400 mg/kg | 38% | inhibition in vivo at 67 mg/kg [3, 5]: 51% |
| CNc1ccc(C(C)C(=O)O)cc1 (stereo not shown) [2-(p-methylaminophenyl)propionic acid, 2-(p-Methylaminophenyl)propionic acid] | > 3200 mg/kg |  | inhibition in vivo at 89 mg/kg ([2]; male rats, oral, 89 mg/kg (about 1/36 of LD50), one hour before carragheenin): 44%; inhibition in vivo at 36 mg/kg [3, 5]: 60% |
| CCCNc1ccc(CC(=O)O)cc1 [p-n-propylaminophenylacetic acid, p-n-Propylaminophenylacetic acid] | 2400 mg/kg | 38% | inhibition in vivo at 27 mg/kg [3, 5]: 49% |
| C=CCNc1ccc(C(C)C(=O)O)cc1 (stereo not shown) [2-(p-allylaminophenyl)propionic acid, 2-(p-Allylaminophenyl)-propionic acid] | 1780 mg/kg |  | inhibition in vivo at 50 mg/kg [2, 4]: 50%; inhibition in vivo at 20 mg/kg ([3]; mice, oral, 20 mg/kg, 30 minutes before acetic acid): 50% |
| C=CCNc1ccc(CC(=O)O)cc1 [p-allylaminophenylacetic acid, p-Allylaminophenylacetic acid] | 1550 mg/kg |  | inhibition in vivo at 45 mg/kg ([2]; male rats, oral, 45 mg/kg (about 1/36 of LD50), one hour before carragheenin): 32%; inhibition in vivo at 100 mg/kg ([3]; mice, oral, 100 mg/kg, 30 minutes before acetic acid): 51% |
| C=C(C)CNc1ccc(C(C)C(=O)OC)cc1.Cl (stereo not shown) [Methyl 2-(p-methallylaminophenyl)-propionate hydrochloride] | 2400 mg/kg | 46% | inhibition in vivo at 27 mg/kg [3, 5]: 49% |
| CCCNc1ccc(C(C)C(=O)O)cc1 (stereo not shown) [2-(p-n-propylaminophenyl)-propionic acid, 2-(p-n-Propylaminophenyl)propionic acid] | 2400 mg/kg | 47% | inhibition in vivo at 13.5 mg/kg [3, 5]: 61% |
| C#CCNc1ccc(CC(=O)O)cc1 [p-propargylaminophenylacetic acid] | 2910 mg/kg |  | inhibition in vivo at 81 mg/kg [2, 6]: 18%; inhibition in vivo at 36 mg/kg [3, 5]: 51% |
| CC(C(=O)O)c1ccc(NCc2ccccc2)cc1 (stereo not shown) [2-(p-benzylaminophenyl)propionic acid] | 880 mg/kg |  | inhibition in vivo at 25 mg/kg ([2]; male rats, oral, 25 mg/kg (about 1/36 of LD50), one hour before carragheenin): 12%; inhibition in vivo at 10 mg/kg ([3]; mice, oral, 10 mg/kg, 30 minutes before acetic acid): 47% |
| CC(=O)Oc1ccccc1C(=O)O [acetylsalicylic acid, reference compound] | 1500 mg/kg |  | inhibition in vivo at 100 mg/kg ([3]; po): 55% |
| C=CCNc1ccc(CC(=O)OCC)cc1 [ethyl p-allylaminophenylacetate, Ethyl para-allylaminophenylacetate] | 2400 mg/kg | 39% | inhibition in vivo at 67 mg/kg [3, 5]: 41% |
| CCNc1ccc(CC(=O)O)cc1 [p-ethylaminophenylacetic acid, p-Ethylaminophenylacetic acid] | 2910 mg/kg |  | inhibition in vivo at 81 mg/kg [2, 6]: 23%; inhibition in vivo at 16 mg/kg ([3]; mice, oral, 16 mg/kg, 30 minutes before acetic acid): 37.5% |
| C=CCNc1ccc(C(C)C(=O)[O-])cc1.[Li+] (stereo not shown) | 2910 mg/kg |  |  |
